Laboratory results: the NIST ThermoML archive (doi:10.1016/j.fluid.2014.04.018)
Values joined by “and” are separate entries in the source; they are usually repeats but may differ in a detail not shown here. Equal entries are not always repeated.

Conditions: Liquid, Vibrating tube method

CCCOC(=O)CCCCC(=O)OCCC [dipropyl hexanedioate]
Conditions	mass density
293.15 K, 100 kPa	979.3 kg/m3
293.15 K, 520 kPa	979.7 kg/m3
293.15 K, 1040 kPa	980 kg/m3
293.15 K, 2530 kPa	981 kg/m3
293.15 K, 5020 kPa	982.5 kg/m3
293.15 K, 7510 kPa	984.1 kg/m3
293.15 K, 7530 kPa	984.2 kg/m3
293.15 K, 10010 kPa	985.7 kg/m3
293.15 K, 15050 kPa	988.9 kg/m3
293.15 K, 20010 kPa	991.8 kg/m3
293.15 K, 30030 kPa	997.7 kg/m3
293.15 K, 39800 kPa	1003.1 kg/m3
293.15 K, 50070 kPa	1008.4 kg/m3
293.15 K, 65000 kPa	1015.7 kg/m3
303.15 K, 100 kPa	970.4 kg/m3 and 970.3 kg/m3
303.15 K, 500 kPa	970.7 kg/m3
303.15 K, 510 kPa	970.7 kg/m3
303.15 K, 1010 kPa	971.1 kg/m3
303.15 K, 2510 kPa	972.1 kg/m3
303.15 K, 5000 kPa	973.8 kg/m3
303.15 K, 5030 kPa	973.8 kg/m3
303.15 K, 7510 kPa	975.5 kg/m3
303.15 K, 10010 kPa	977.1 kg/m3
303.15 K, 10020 kPa	977.1 kg/m3
303.15 K, 15010 kPa	980.4 kg/m3
303.15 K, 20000 kPa	983.5 kg/m3
303.15 K, 30000 kPa	989.6 kg/m3
303.15 K, 30010 kPa	989.6 kg/m3
303.15 K, 39800 kPa	995.2 kg/m3
303.15 K, 50010 kPa	1000.7 kg/m3
303.15 K, 64990 kPa	1008.3 kg/m3
303.15 K, 65010 kPa	1008.3 kg/m3
313.15 K, 100 kPa	961.5 kg/m3
313.15 K, 500 kPa	961.8 kg/m3
313.15 K, 1010 kPa	962.2 kg/m3
313.15 K, 2510 kPa	963.3 kg/m3
313.15 K, 5040 kPa	965.1 kg/m3
313.15 K, 7510 kPa	966.8 kg/m3
313.15 K, 10010 kPa	968.5 kg/m3
313.15 K, 15000 kPa	971.9 kg/m3
313.15 K, 19980 kPa	975.2 kg/m3
313.15 K, 30000 kPa	981.6 kg/m3
313.15 K, 39800 kPa	987.4 kg/m3
313.15 K, 39810 kPa	987.4 kg/m3
313.15 K, 50060 kPa	993.2 kg/m3
313.15 K, 65000 kPa	1001 kg/m3
323.15 K, 100 kPa	952.4 kg/m3
323.15 K, 500 kPa	952.8 kg/m3
323.15 K, 1010 kPa	953.2 kg/m3
323.15 K, 2530 kPa	954.3 kg/m3
323.15 K, 5020 kPa	956.2 kg/m3
323.15 K, 7510 kPa	958 kg/m3
323.15 K, 7550 kPa	958.1 kg/m3
323.15 K, 10000 kPa	959.9 kg/m3
323.15 K, 15030 kPa	963.4 kg/m3
323.15 K, 20010 kPa	966.9 kg/m3
323.15 K, 30010 kPa	973.5 kg/m3
323.15 K, 39820 kPa	979.5 kg/m3
323.15 K, 50020 kPa	985.5 kg/m3
323.15 K, 64990 kPa	993.7 kg/m3
333.15 K, 100 kPa	943.5 kg/m3
333.15 K, 500 kPa	943.9 kg/m3
333.15 K, 1020 kPa	944.3 kg/m3
333.15 K, 2520 kPa	945.5 kg/m3
333.15 K, 5010 kPa	947.5 kg/m3
333.15 K, 7510 kPa	949.4 kg/m3
333.15 K, 10000 kPa	951.3 kg/m3
333.15 K, 15000 kPa	955.1 kg/m3
333.15 K, 20000 kPa	958.7 kg/m3
333.15 K, 30020 kPa	965.6 kg/m3
333.15 K, 39790 kPa	971.9 kg/m3
333.15 K, 50050 kPa	978.1 kg/m3
333.15 K, 65000 kPa	986.5 kg/m3
343.15 K, 100 kPa	934.6 kg/m3
343.15 K, 520 kPa	935 kg/m3
343.15 K, 1040 kPa	935.5 kg/m3
343.15 K, 2540 kPa	936.7 kg/m3
343.15 K, 5020 kPa	938.8 kg/m3
343.15 K, 7510 kPa	940.8 kg/m3
343.15 K, 7520 kPa	940.8 kg/m3
343.15 K, 10020 kPa	942.8 kg/m3
343.15 K, 15000 kPa	946.7 kg/m3
343.15 K, 20030 kPa	950.6 kg/m3
343.15 K, 29580 kPa	957.4 kg/m3
343.15 K, 39860 kPa	964.3 kg/m3
343.15 K, 50020 kPa	970.7 kg/m3
343.15 K, 65000 kPa	979.4 kg/m3
353.15 K, 100 kPa	925.7 kg/m3
353.15 K, 510 kPa	926.1 kg/m3
353.15 K, 1020 kPa	926.5 kg/m3
353.15 K, 2530 kPa	927.9 kg/m3
353.15 K, 5020 kPa	930.1 kg/m3
353.15 K, 7510 kPa	932.2 kg/m3
353.15 K, 7530 kPa	932.2 kg/m3
353.15 K, 10000 kPa	934.3 kg/m3
353.15 K, 14550 kPa	938 kg/m3
353.15 K, 20020 kPa	942.3 kg/m3
353.15 K, 30010 kPa	949.8 kg/m3
353.15 K, 39800 kPa	956.7 kg/m3
353.15 K, 49990 kPa	963.4 kg/m3
353.15 K, 64990 kPa	972.4 kg/m3
363.15 K, 100 kPa	916.7 kg/m3
363.15 K, 500 kPa	917.2 kg/m3
363.15 K, 980 kPa	917.6 kg/m3
363.15 K, 2520 kPa	919.1 kg/m3
363.15 K, 5000 kPa	921.3 kg/m3
363.15 K, 7480 kPa	923.6 kg/m3
363.15 K, 10020 kPa	925.8 kg/m3
363.15 K, 15020 kPa	930.1 kg/m3
363.15 K, 20020 kPa	934.2 kg/m3
363.15 K, 30020 kPa	942 kg/m3
363.15 K, 39810 kPa	949.1 kg/m3
363.15 K, 50050 kPa	956.1 kg/m3
363.15 K, 64970 kPa	965.4 kg/m3
